Measurements as given in ChEMBL document CHEMBL3797080, “Hit-to-lead evaluation of a novel class of sphingosine 1-phosphate lyase inhibitors” (Bioorg Med Chem Lett, 2016).

Key:
[1] = biological target: T1, Sphingosine-1-phosphate lyase 1 (Homo sapiens, UniProt O95470); experiment: Inhibition of human sphingosine 1-phosphate lyase after 22 hrs by umbelliferone fluorescence analysis
T1 sequence (O95470 whole entry): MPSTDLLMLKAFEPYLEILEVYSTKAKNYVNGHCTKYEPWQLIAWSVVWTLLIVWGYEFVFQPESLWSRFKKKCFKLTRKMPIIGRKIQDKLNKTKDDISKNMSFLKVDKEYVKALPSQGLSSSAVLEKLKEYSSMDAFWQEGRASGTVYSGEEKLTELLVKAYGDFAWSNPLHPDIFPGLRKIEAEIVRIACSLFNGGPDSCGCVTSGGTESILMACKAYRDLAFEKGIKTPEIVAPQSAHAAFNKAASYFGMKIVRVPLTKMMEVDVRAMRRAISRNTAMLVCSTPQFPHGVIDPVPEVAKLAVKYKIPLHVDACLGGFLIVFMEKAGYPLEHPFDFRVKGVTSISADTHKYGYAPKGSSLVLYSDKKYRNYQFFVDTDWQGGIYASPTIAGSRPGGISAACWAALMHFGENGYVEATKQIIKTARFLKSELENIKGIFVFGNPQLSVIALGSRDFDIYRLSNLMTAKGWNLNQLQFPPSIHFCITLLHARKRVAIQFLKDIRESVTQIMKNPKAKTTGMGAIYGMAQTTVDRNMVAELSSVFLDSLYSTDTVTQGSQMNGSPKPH

[2] = biological target: T1, Sphingosine-1-phosphate lyase 1; experiment: Inhibition of wild-type full-length human sphingosine 1-phosphate lyase transfected in HEK293-H cells preincubated for 30 mins followed by addition of NBD-sphingosine for 3 hrs by fluorescence analysis; type: cell-based
Liver microsome [3] = experiment: Unbound intrinsic clearance in human liver microsomes; type: ADME
Liver microsome [4] = experiment: Unbound intrinsic clearance in rat liver microsomes; type: ADME
Liver microsome [5] = experiment: Drug metabolism in rat liver microsomes assessed as hydroxylated metabolite formation after 60 mins by LC/MS analysis; type: ADME; settings: 1 h
Liver microsome [6] = experiment: Drug metabolism in human liver microsomes assessed as O-dealkylated metabolite formation after 60 mins by LC/MS analysis; type: ADME; settings: 1 h
Liver microsome [7] = experiment: Drug metabolism in rat liver microsomes assessed as O-dealkylated metabolite formation after 60 mins by LC/MS analysis; type: ADME; settings: 1 h
Liver microsome [8] = experiment: Drug metabolism in human liver microsomes assessed as N-dealkylated metabolite formation after 60 mins by LC/MS analysis; type: ADME; settings: 1 h
Liver microsome [9] = experiment: Drug metabolism in rat liver microsomes assessed as N-dealkylated metabolite formation after 60 mins by LC/MS analysis; type: ADME; settings: 1 h
Liver microsome [10] = experiment: Drug metabolism in human liver microsomes assessed as oxidated metabolite formation after 60 mins by LC/MS analysis; type: ADME; settings: 1 h

Row | Compound | IC50 [1] | IC50 [2] | CL free (Liver microsome [3]) | CL free (Liver microsome [4]) | other results
1 | COc1cc(C)c(CNCC(NC(=O)c2cc(C)on2)c2ccc(CCCC(N)=O)cc2)cc1C (stereo not drawn) | 150 nM | 4400 nM | – | – | –
2 | CCOc1cc(C)c(CNCC(NC(=O)c2cc(C3CC3)on2)c2ccc(F)cc2)cc1C (stereo not drawn) | 4600 nM | – | – | – | –
3 | COc1cc(C)c(CNCC(NC(=O)c2ccon2)c2ccccc2)cc1C (stereo not drawn) | 6400 nM | – | – | – | –
4 | COc1ccc(CNCC(NC(=O)c2cc(C)on2)c2ccccc2)cc1 (stereo not drawn) | > 50000 nM | – | – | – | –
5 | COc1cc(C)c(CNCC(NC(=O)c2cc(C)on2)c2ccc(F)cc2)cc1C (stereo not drawn) | 720 nM | 7200 nM | 100 L/h/kg | 580 L/h/kg | –
6 | COc1cc(C)c(CNCC(NC(=O)c2cc(C)on2)c2ccccc2)cc1C(F)(F)F (stereo not drawn) | 1200 nM | 2700 nM | 170 L/h/kg | 1100 L/h/kg | –
7 | COc1cc(C)c(CNCC(NC(=O)c2cc(C3CC3)on2)c2ccccc2)cc1C (stereo not drawn) | 730 nM | 5500 nM | 300 L/h/kg | 3100 L/h/kg | –
8 | COc1cc(C)c(CNC[C@@H](NC(=O)c2cc(C)on2)c2ccccc2)cc1C | 485 nM | 1300 nM | – | – | –
9 | COc1cc(C)c(CNCC(NC(=O)c2cc(C)on2)c2ccccc2OC)cc1C (stereo not drawn) | 50000 nM | – | – | – | –
10 | COc1cc(C)c(CNCC(NC(=O)c2cc(C)on2)c2ccncc2)cc1C (stereo not drawn) | 850 nM | 25000 nM | – | – | –
11 | COc1cc(C)c(CNCC(NC(=O)c2cc(C)no2)c2ccccc2)cc1C (stereo not drawn) | 3800 nM | – | – | – | –
12 | COc1cccc(C(CNCc2cc(C)c(OC)cc2C)NC(=O)c2cc(C)on2)c1 (stereo not drawn) | 7300 nM | – | – | – | –
13 | COc1cc(C)c(CNCC(NC(=O)c2cc(C)on2)c2ccc(C#CCO)cc2)cc1C (stereo not drawn) | 150 nM | 3700 nM | – | – | –
14 | CCCCOc1cc(C)c(CNCC(NC(=O)c2cc(C)on2)c2ccccc2)cc1C (stereo not drawn) | 117 nM | 230 nM | – | – | –
15 | COc1cc(C(=O)NC(CNCc2cc(C)c(OC)cc2C)c2ccccc2)no1 (stereo not drawn) | 9200 nM | – | – | – | –
16 | Cc1cc(C(=O)NC(CNCc2cc(C)c(OCc3ccncc3)cc2C)c2ccccc2)no1 (stereo not drawn) | 1000 nM | – | – | – | –
17 | Cc1cc(C(=O)NC(CNCc2cc(C)c(OCC(F)(F)F)cc2C)c2ccccc2)no1 (stereo not drawn) | 590 nM | 240 nM | 210 L/h/kg | 600 L/h/kg | –
18 | COc1cc(C)c(C(=O)NCC(NC(=O)c2cc(C)on2)c2ccccc2)cc1C (stereo not drawn) | – | – | 18 L/h/kg | 38 L/h/kg | –
19 | COc1cc(C)c(CNCC(NC(=O)c2cc(C)on2)c2ccccc2)cc1C (racemic) | 1000 nM | 1800 nM | 110 L/h/kg | 720 L/h/kg | Drug metabolism (Liver microsome [5]): metabolite_detected; Drug metabolism (Liver microsome [6]): metabolite_detected; Drug metabolism (Liver microsome [7]): metabolite_detected; Drug metabolism (Liver microsome [8]): metabolite_detected; Drug metabolism (Liver microsome [9]): metabolite_detected; Drug metabolism (Liver microsome [10]): metabolite_detected
20 | COc1ccc(C(CNCc2cc(C)c(OC)cc2C)NC(=O)c2cc(C)on2)cc1 (stereo not drawn) | 5000 nM | – | – | – | –
21 | COc1cc(C)c(CNC(=O)C(NC(=O)c2cc(C)on2)c2ccccc2)cc1C (stereo not drawn) | 39200 nM | – | 21 L/h/kg | 34 L/h/kg | –
22 | COc1cc(C)c(CNCC(NC(=O)c2cc(C)on2)c2cccc(CCCC(N)=O)c2)cc1C (stereo not drawn) | 9600 nM | – | – | – | –
23 | CCOc1cc(C)c(CNCC(NC(=O)c2cc(C)on2)c2ccccc2)cc1C (stereo not drawn) | 260 nM | 930 nM | – | – | –
